Measurements: patent publication US4153727A, “Pharmaceutical compositions of a prostaglandin compound for rectal use in treating asthma” (priority 1977, dated 1979)

Key:
histamine [1] = assay: antiasthmatic effect, oral: protection against histamine-induced sneezing; type: in vivo; conditions: Cavia porcellus, 0.5 h, 30 min before histamine spray, guinea-pigs
Protocol: (§1) Guinea-pigs were placed in a chamber and sprayed for 10 sec. with an aerosol of histamine solution (0.1%) and onset of sneezing was recorded. Animals that sneezed within 70-100 sec. were selected as controls. These animals were sprayed for 15 sec. with an aerosol of the test compounds. After 45 sec., the animals were sprayed with histamine and observed for 3 min.
Guinea-pigs were sprayed for 10 sec with histamine 30 min after oral administration of the test compounds and observed for 3 min. The percent of amimals protected was determined.

histamine [2] = assay: antiasthmatic effect, aerosol: protection against histamine-induced sneezing; type: in vivo; conditions: aerosol 15 sec; histamine aerosol 0.1%; guinea-pigs
Protocol: as §1

[3] = diarrhea-producing effect, oral; conditions: guinea pig, in vivo, guinea-pigs; for TD50: observed at 2-5 hrs and next morning, read-out: (A) Diarrhea-producing effect (b) ED50; for selectivity ratio: read-out: b/a (diarrhea-producing ED50 / oral antiasthmatic ED50)
Protocol: Ii. diarrhea-producing Effect
Test compounds were administered orally to guinea-pigs. The appearance of diarrhea (loose or watery feces) at every 2 hrs, 3 hrs, 4 hrs and 5 hrs period and next morning were noted.

histamine [4] = conditions: earlier patents; cited from earlier work
[5] = test system: bronchoconstriction induced by intravenous injection of histamine; assay: effect on air-way resistance (Konzett and Rossler), intraduodenal administration; type: in vivo, guinea-pig; conditions: Cavia porcellus, 0.5 h, 30 min before i.v. histamine 3 μg/kg, anesthetized guinea-pigs, read-out: (B) Effect on air-way resistance ED50
Protocol: Iii. effect on Air-way Resistance
The air-way resistance of the guinea-pig lung was determined by the method of Konzett and Rossler (Arch. exp. Path. Pharmak., 195, 71-74(1940)). The bronchodilator activity of prostaglandins were expressed in terms of protective effect against bronchoconstriction induced by intravenous injection of histamine (3 μg/kg). Histamine was injected 30 min after intraduodenal administration of test compound to urethane anesthetized and artificially ventilated guinea-pigs.

hystamine = assay: Experiment 1: bronchodilator activity by hystamine spray method, rectal vs oral; type: in vivo, male guinea pigs; conditions: 30 min; for Bronchodilator activity, effective / animals tested: oral (control)
Protocol: A suppository prepared using the compound of formula I and the oily base or water-soluble base was applied by rectal administration (this invention) to male guinea pigs fasted for 24 hours, each weighing about 550 g. On the other hand, a solution of the compound of formula I in physiological saline solution was applied by oral administration to guinea pigs under the same condition as above for control. After 30 minutes from the administration, the bronchodilator activity of the medicament was determined by a hystamine spray method.

histamine [6] = conditions: earlier patents; cited from earlier work; remark: listed apart in the source
[7] = test system: respiratory tract contraction induced by hystamine; assay: 50% inhibition of respiratory tract contraction induced by hystamine, oral vs intravenous; type: in vivo; conditions: 50% inhibition of hystamine-induced respiratory tract contraction
[8] = stability as inhalant (aerosol); type: physicochemical; conditions: used as an inhalant (aerosol)
[9] = rectal administration: absorption, antitussive effect, diarrhea; type: in vivo

| Structure (SMILES) | ED50 (histamine [1]) | Antiasthmatic effect, Aerosol ED50 (histamine [2]) | TD50 [3] | selectivity ratio [3] | antiasthmatic effect by oral administration (in words) (histamine [4]) | also measured |
| --- | --- | --- | --- | --- | --- | --- |
| CCCC[C@@H](C)[C@H](O)/C=C/[C@H]1[C@H](O)CC(=O)[C@@H]1C/C=C\CCCC(=O)O [16(R)-methyl-PGE2, 11α,15(S)-dihydroxy-16(R)-methyl-9-oxo-5(cis)-13(trans)prostadienoic acid] | 0.0175 mg/kg | 0.011 µg/mL | 0.025 mg/kg | 1.43 | – | – |
| CCCC[C@H](C)[C@H](O)/C=C/[C@H]1[C@H](O)CC(=O)[C@@H]1C/C=C\CCCC(=O)O [16(S)-methyl-PGE2, 11α, 15(S)-dihydroxy-16(S)-methyl-9-oxo-5(cis)-13(trans)prostadienoic acid] | 0.025 mg/kg | 0.009 µg/mL | 0.1 mg/kg | 4 | – | – |
| COCCCCC[C@H](O)/C=C/[C@H]1[C@H](O)CC(=O)[C@@H]1C/C=C\CCCC(=O)O [20-methoxy-PGE2, 11α,15(S)-dihydroxy-20-methoxy-9-oxo-5(cis)-13(trans)Prostadienoic acid] | > 0.8 mg/kg | 0.15 µg/mL | – | – | does not show antiasthmatic effect | – |
| CCCCC[C@H](O)/C=C/[C@H]1[C@H](O)CC(=O)[C@@H]1C/C=C\CCCC(=O)O [Prostaglandin E2] | > 0.8 mg/kg | 0.15 µg/mL | – | – | – | ED50 [5]: > 0.8 mg/kg |
| COCCCC[C@H](C)[C@H](O)/C=C/[C@H]1[C@H](O)CC(=O)[C@@H]1C/C=C\CCCC(=O)O [compound of formula I, 11α,15(S)-dihydroxy-20-methoxy-16(S)-methyl-9-oxo-5(cis),13(trans)-prostadienoic acid] | 0.71 mg/kg | – | 0.14 mg/kg | 20 | excellent antiasthmatic effect | Bronchodilator activity, effective / animals tested (hystamine; 3.1 μg/kg): 1/6; Bronchodilator activity, effective / animals tested (hystamine; 6.3 μg/kg): 3/6; Bronchodilator activity, effective / animals tested (hystamine; 12.5 μg/kg): 4/6; Bronchodilator activity, effective / animals tested (hystamine; 25 μg/kg): 4/6; Bronchodilator activity, effective / animals tested (hystamine; 50 μg/kg): 5/6; Bronchodilator activity ED50 (hystamine; oral administration (control)): 0.007 mg/kg; antiasthmatic effect by aerosol administration (in words) (histamine [6]): excellent antiasthmatic effect; effective amount (ED50) oral relative to intravenous injection [7]: about 2400 times; stability of the medicament [8]: difficult to maintain the stability; absorption through the intestine [9]: unexpectedly absorbed through the intestine; antitussive effect [9]: exhibits an antitussive effect; diarrhea [9]: does not cause diarrhea |
